Tests used:
[1] = system: Human immunodeficiency virus 1; test: Antiviral activity against ABC, ddC, ddI, TDF, AZT, d4T-resistant HIV-1 G910-6 infected in human PBMC assessed as inhibition of viral replication by ELISA; format: functional, organism-based; settings: Human immunodeficiency virus 1, G910-6
[2] = Antiviral activity against HPV-33 infected in CK1 cells assessed as inhibition of viral replication after 3 days; format: functional, cell-based, Human papillomavirus type 33; settings: human papillomavirus 33, CK1, 72 h; read-out: TC50 (the source's name)
Human betaherpesvirus 5 = test: Antiviral activity against Human cytomegalovirus AD169 infected in human embryonic lung cells assessed as reduction in viral yield; format: functional, organism-based; settings: Human betaherpesvirus 5, AD169, lung
[3] = system: Human immunodeficiency virus 1; test: Antiviral activity against HIV1 subtype B SF162 infected in human PBMC assessed as inhibition of viral replication by ELISA; format: functional; settings: Human immunodeficiency virus 1, SF162 ISOLATE
Rattus norvegicus = test: Immunosuppressive activity in Sprague-Dawley rat […] model assessed as percent T lymphocytes at 25 mg/kg, po administered once daily for 28 days by flow cytometry; format: functional
[4] = system: Human immunodeficiency virus 1; test: Antiviral activity against APV, ATV, LPV, IDV, NFV, RTV, SQV-resistant HIV-1 1064-52 infected in human PBMC assessed as inhibition of viral replication by ELISA; format: functional, organism-based; settings: Human immunodeficiency virus 1, 1064-52
PBMC = test: Cytotoxicity against human PBMC at 0.83 uM by MTT assay; format: cell-based

In the case of `C/C=C/C[C@@H](C)[C@@H](O)[C@H]1C(=O)N[C@@H](CC)C(=O)N(C)[C@H](C)C(=O)N(CC)[C@@H](C(C)C)C(=O)N[C@@H](C(C)C)C(=O)N(C)[C@@H](CC(C)C)C(=O)N[C@@H](C)C(=O)N[C@H](C)C(=O)N(C)[C@@H](CC(C)C)C(=O)N(C)[C@@H](CC(C)C)C(=O)N(C)[C@@H](C(C)C)C(=O)N1C` [ALISPORIVIR], the IC50 [1] is reported as 29 nM, the CC50 [2] is reported as 400 nM and the IC50 (Human betaherpesvirus 5) is reported as 8900 nM. It also gave an IC50 [3] of 15 nM, an Activity (Rattus norvegicus) of 53.4% and an IC50 [4] of 7 nM. The Activity (PBMC) was “Non-toxic”.
